Test results reported in patent publication US20230414619A1 (priority 2020, published 2023).

Tests used:
SARS-CoV-2 = details: emetine inhibition of Rps14; pladienolide inhibition of SF3B1; cited from earlier work
[1] = test system: PBMCs from a COVID-19 patient; assay type: cell-based, human

SMILES | SARS-CoV-2 replication (SARS-CoV-2) | differentially expressed host factors necessary for SARS-CoV-2 pathogenesis (siRNA and CRISPR screens) [1] | differentially expressed host interactors of SARS-CoV-2 viral RNA [1] | differentially expressed host proteins that interact with SARS-CoV-1/2 and MERS encoded proteins [1] | downregulated proteins following treatment [1] | upregulated proteins following treatment [1] | proteins differentially expressed following treatment ([1]; of 5566 proteins quantified, ANOVA P value<0.05, 0-24 h treatment) | differentially expressed proteins whose turnover is G9a dependent in ET macrophages ([1]; out of 292, 78 upregulated, 74 downregulated)
CC[C@H](O)[C@@H](C)[C@H]1O[C@@H]1C[C@H](C)/C=C/C=C(\C)[C@H]1OC(=O)C[C@H](O)CC[C@@](C)(O)[C@@H](OC(C)=O)/C=C/[C@@H]1C [pladienolide] | significantly reduced |  |  |  |  |  |  | 
CC[C@H]1CN2CCc3cc(OC)c(OC)cc3[C@@H]2C[C@@H]1C[C@H]1NCCc2cc(OC)c(OC)cc21 [emetine] | significantly reduced |  |  |  |  |  |  | 
COc1cc2c(NC3CCN(C(C)C)CC3)nc(N3CCC(F)(F)CC3)nc2cc1OCCCN1CCCC1 [UNC0642] |  | 8 | 2 | 129 | 151 | 141 | 292 | 152
